Values belong to the molecule of their own block, whether it stands above or below them.
Tests used:
[1] = Mineral oil removal from aluminum coupon, sonication in solvent; details: sonicated 1 minute
Procedure: In the following Examples and Comparative Examples, the cleaning ability of the alkoxy-substituted perfluorocompounds used in the cleaning process of the invention was further evaluated. A 1.28 cm×1.28 cm×0.225 cm wire-wrapped, aluminum coupon was coated with white heavy mineral oil (available from Aldrich Chemical) by immersing the coupon in an oil-filled beaker. The initial amount of the oil on the coupon was determined by weighing it on an analytical balance to the nearest 0.1 mg. The coupon was immersed in a container of solvent and sonicated for 1 minute at the indicated temperature (see Table 3 below for the solvents and temperatures used). The coupon was then weighed again, and the results were recorded in Table 3 as percent oil removal.

[2] = Stability in the presence of acid (96% sulfuric acid, GLC); type: physicochemical; details: neat ether; sulfuric acid as in Stability in the Presence of Acid section
Procedure: To assess hydrolytic stability under acidic conditions, C4F9OCH3 (15 g, 0.06 mole) was combined with sulfuric acid (10 g of 96% by weight, 0.097 mole) in a 50 mL flask containing a stir bar and fitted with a reflux condenser. The resulting mixture was stirred for 16 hours at room temperature, and then the resulting upper fluorochemical phase was separated from the resulting lower sulfuric acid phase. […] Chem. 49, 4007 (1984), which states that “[f]luorine atoms attached to carbon which also bears an alkyl ether group are known to be labile to electrophilic reagents. They are readily hydrolyzed in concentrated sulfuric acid, thus providing a route to some esters of fluoroacids.”

[3] = Open cup flash point ASTM D1310-86; type: physicochemical
Procedure: (§1) Various properties were measured for C4F9OCH3, CHClFCF2OCH3, and blends of each ether compound with cosolvent, trans-1,2-dichloroethylene (hereinafter, t-DCE) or n-butyl bromide, at various weight ratios.

[4] = Closed cup flash point ASTM D3278-96; type: physicochemical
Procedure: as §1

[5] = Solvency properties: largest normal hydrocarbon alkane soluble at 50 percent by volume
Procedure: A number of potential solvents were tested for their ability to dissolve hydrocarbons of increasing molecular weight according to the procedure described in U.S. Pat. No. 5,275,669 (Van Der Puy et al.), the description of which is incorporated herein by reference. The data shown in Table 1 were obtained by determining the largest normal hydrocarbon alkane which was soluble in a particular solvent at a level of 50 percent by volume. The numbers in the Table correspond with the carbon number of the largest alkane, e.g., “8” refers to octane. Measurements were made from room temperature up to the boiling point of the solvent. For comparative purposes, hydrofluorocarbons (HFCs) and perfluorocarbons (PFCs) were also tested using this method.
Using essentially the above-described method, the solvency properties of other alkoxy-substituted perfluorocompounds were tested at room temperature.

[6] = Rinse agent in co-solvent cleaning of solder flux; details: solvating agent 1 minute at about 55° C., then 30 seconds in boiling solvent
Procedure: The ability of alkoxy-substituted perfluorocompounds to function as a rinse agent in a co-solvent cleaning process was evaluated. The above-described aluminum coupon was coated with solder flux (available from Alpha Metals as Alpha 611 rosin, mildly activated flux) by immersing the coupon into a flux-filled beaker. The flux-coated coupon was then dried using a forced air convection drier. The initial amount of the flux on the coupon was determined by weighing it on an analytical balance to the nearest 0.1 mg. The coupon was immersed in a container of a mixed solvating agent comprising approximately 50% methyl decanoate and 50% dipropylene glycol di-n-butyl ether and was sonicated for 1 minute at approximately 55° C. The coupon was then immersed for 30 seconds into alkoxy-substituted perfluorocompound which had been heated to its boiling point. The coupon was weighed again, and the results were recorded in Table 5 below as percent oil removed from the coupon.

[7] = Perfluoropolyether oil removal in solvent vapor; details: Brayco 815Z; vapor over boiling liquid, 60 seconds
Procedure: The above-described aluminum coupon was dipped into Brayco 815Z perfluoropolyether oil (available from Castrol Inc., molecular weight of about 10,000) and then immersed in alkoxy-substituted perfluorocompound vapor (over the boiling liquid) for 60 seconds. The percent oil removal was determined in the above-described manner.

[8] = Paraffinic oil removal: solvating agent, then rinse in boiling solvent; details: methyl caproate/dipropylene glycol di-n-butyl ether 30 seconds, boiling rinse 30 seconds
Procedure: The above-described test coupon was dipped into a paraffinic oil comprising a mixture of linear and branched hydrocarbons (DuoSeal Pump Oil, available from Sargent Welch), was immersed in mixed solvating agent comprising approximately 50% methyl caproate and 50% dipropylene glycol di-n-butyl ether for 30 seconds, and was then rinsed in boiling alkoxy-substituted perfluorocompound for 30 seconds. The percent oil removal was determined in the above-described manner.

[9] = Pump oil removal with boiling mixed terpenes/perfluorocompound mixture; details: boiling mixture 40 volume % mixed terpenes, 60 volume % fluorinated component
Procedure: The above-described test coupon was dipped into DuoSeal Pump Oil (available from Sargent-Welch), was immersed in a boiling mixture of 40 volume % of a solvating agent comprising mixed terpenes having a boiling range of 243-274° C. and 60 volume % of alkoxy-substituted perfluorocompound (a cleaning composition of the invention), was cooled for 60 seconds, and was then immersed in mixture vapor for 30 seconds. The percent oil removal was determined in the above-described manner.

[10] = Pump oil removal with n-C6H14/perfluorocompound mixture at room temperature, ultrasonic; details: 40 volume % n-C6H14, 60 volume % fluorinated component, 60 seconds
Procedure: The above-described test coupon was dipped into DuoSeal Pump Oil (available from Sargent-Welch) and was then immersed in a mixture of 40 volume % n-C6H14 and 60 volume % alkoxy-substituted perfluorocompound (a cleaning composition of the invention) for 60 seconds at room temperature with ultrasonic agitation. The percent oil removal was determined in the above-described manner.

[11] = Pump oil removal in vapor of boiling n-C6H14/perfluorocompound mixture; details: vapor of boiling 40 volume % n-C6H14, 60 volume % fluorinated component; 60 seconds
Procedure: The above-described test coupon was dipped into DuoSeal Pump Oil (available from Sargent-Welch) and was then immersed in the vapor of a boiling mixture of 40 volume % n-C6H14 and 60 volume % alkoxy-substituted perfluorocompound (a cleaning composition of the invention), for 60 seconds. The percent oil removal was determined in the above-described manner.

[12] = Stability in the presence of base: aqueous NaOAc, fluoride ion measurement; type: physicochemical; details: 10 g with 10 g 0.1M NaOAc, 110° C., 16 hours
Procedure: To assess hydrolytic stability, a ten gram sample of alkoxy-substituted perfluorocompound was combined with 10 g of 0.1M NaOAc and sealed in a 2.54 cm (internal diameter) by 9.84 cm Monel™ 400 alloy (66% nickel, 31.5% copper, and 1.2% iron and several minor components) tube (available from Paar Instrument Co. of Moline, Ill. as Part Number 4713cm). The tube was heated at 110° C. in a forced air convection oven for 16 hours. After cooling to room temperature, a 1 mL sample of the tube contents was diluted with 1 mL of total ionic strength adjustment buffer (TISAB, available from Orion Research, Inc., a mixture of 1,2-cyclohexylene dinitrilotetraacetic acid, deionized water, sodium acetate, sodium chloride, and acetic acid). The concentration of fluoride ion (resulting from any reaction of the perfluorocompound with the aqueous NaOAc) was measured using an Orion Model 720A Coulombmeter with a F-specific electrode which had been previously calibrated using 0.5 and 500 ppm F^− solutions. Based on the measured fluoride ion concentration, the rate at which HF had been generated by reaction of the aqueous NaOAc with the perfluorocompound was calculated.

[13] = Flash point testing ASTM D3278-89; type: physicochemical
Procedure: The alkoxy-substituted perfluorocompounds C4F9OCH3, C4F9OC2H5, and c-C6F11OCH3 were tested for flash point by the standard method defined by ASTM D3278-89.

[14] = Fluorinated oil removal from aluminum coupon; details: Krytox 157FSM, room temperature
Procedure: Using essentially the same procedure as that described in Examples 8-10, the ability of the alkoxy-substituted perfluorocompounds to remove a fluorinated oil was evaluated. As in the previous Examples, a coupon was immersed in Krytox™ 157FSM perfluoropolyether oil having carboxylic acid end groups (available from DuPont), and the percent oil remaining after immersion in the solvent (at room temperature) was determined.

[15] = Ability to dissolve halogenated oils (miscibility); type: physicochemical; details: room temperature
Procedure: The ability of alkoxy-substituted perfluorocompounds to dissolve several halogenated oils was determined by adding a measured amount of oil to alkoxy-substituted perfluorocompound until the resulting mixture became turbid or phase-split. […] The results (shown in Table 12) indicate that alkoxy-substituted perfluorocompounds have very high ability to dissolve halogenated oils. Thus, the perfluorocompounds can be used as carrier solvents for halogenated oils in the deposition of coatings of such oils on substrate surfaces.

[16] = Mineral oil removal with boiling methyl decanoate/perfluorocompound mixture; details: boiling mixture 40 volume % methyl decanoate, 60 volume % perfluorocompound
Procedure: The above-described test coupon was dipped in white heavy mineral oil (available from Aldrich Chemical), was immersed in a boiling single-phase mixture of 40 volume % of a solvating agent comprising essentially methyl decanoate and 60 volume % of alkoxy-substituted perfluorocompound (a cleaning composition of the invention) for 60 seconds, was cooled for 60 seconds, and was then immersed in mixture vapor for 30 seconds. The percent oil removal was determined in the above-described manner.

[17] = 20 weight % ether, 80 % n-butyl bromide
[18] = 30 weight % ether, 70 % n-butyl bromide
[19] = 50 weight % ether, 50 % n-butyl bromide
[20] = 80 weight % ether, 20 % n-butyl bromide
[21] = Brayco 815Z Perfluoropolyether (MW about 10,000)
[22] = Chlorotrifluoroethylene Fluid (Inland 41 Vacuum Pump Oil)
[23] = Fomblin AM-2001 Functionalized Perfluoropolyether

Molecule: FC(F)(Cl)C(F)(Cl)Cl [CF2ClCFCl2, reference compound]
percent oil removal ([1]; 23 ° C.): 98.9%
percent oil removal ([1]; 50 ° C.): 98.7%

Stability in Presence of Acid: conversion to ester [2]: 100%
Open Cup Flash Point (ASTM D1310-86) ([3]; 20 weight % ether, 80 % t-DCE): 80 (27) ° F. (° C.)
Open Cup Flash Point (ASTM D1310-86) ([3]; 50 weight % ether, 50 % t-DCE): 80 (27) ° F. (° C.)
Open Cup Flash Point (ASTM D1310-86) ([3]; 80 weight % ether, 20 % t-DCE): 85 (29) ° F. (° C.)
Open Cup Flash Point (ASTM D1310-86) ([3]; 100 weight % ether, 0 % t-DCE): 76 (24) ° F. (° C.)
Closed Cup Flash Point (ASTM D3278-96) [4, 17]: 50 (7) ° F. (° C.)
Closed Cup Flash Point (ASTM D3278-96) [4, 18]: 45 (10) ° F. (° C.)
Closed Cup Flash Point (ASTM D3278-96) [4, 19]: 45 (7) ° F. (° C.)
Closed Cup Flash Point (ASTM D3278-96) [4, 20]: 50 (10) ° F. (° C.)
Closed Cup Flash Point (ASTM D3278-96) ([4]; 100 weight % ether, 0 % n-butyl bromide, raised to 140° F. (60° C.)): 45 (7) ° F. (° C.)
Largest Carbon Number of Longest Hydrocarbon Alkane to Dissolve [5, 17]: 21
Largest Carbon Number of Longest Hydrocarbon Alkane to Dissolve ([5]; 20 weight % ether, 80 % t-DCE): 27
Largest Carbon Number of Longest Hydrocarbon Alkane to Dissolve [5, 18]: 21
Largest Carbon Number of Longest Hydrocarbon Alkane to Dissolve [5, 19]: 20
Largest Carbon Number of Longest Hydrocarbon Alkane to Dissolve ([5]; 50 weight % ether, 50 % t-DCE): 21
Largest Carbon Number of Longest Hydrocarbon Alkane to Dissolve [5, 20]: 19
Largest Carbon Number of Longest Hydrocarbon Alkane to Dissolve ([5]; 80 weight % ether, 20 % t-DCE): 19
Largest Carbon Number of Longest Hydrocarbon Alkane to Dissolve ([5]; 100 weight % ether, 0 % n-butyl bromide): 18
Largest Carbon Number of Longest Hydrocarbon Alkane to Dissolve ([5]; 100 weight % ether, 0 % t-DCE): 18
Molecule: COC(F)(F)C(F)Cl (centres unmarked) [CHClFCF2OCH3, 2-chloro-1,1,2-trifluoroethyl methyl ether, reference compound]

Molecule: FC(F)C(F)(F)C(F)(F)C(F)(F)C(F)(F)C(F)(F)F [Example C6F13H, C6F13H, reference compound]
percent oil removal ([1]; 23 ° C.): 71.7%
percent oil removal ([1]; 50 ° C.): 86.8%
% Removed [6]: 91.2%

Molecule: FC(F)(F)C(F)(F)C(F)(F)C(F)(F)C(F)(F)C(F)(F)F [Example C6F14, C6F14, reference compound]
percent oil removal ([1]; 23 ° C.): 54.9%
percent oil removal ([1]; 50 ° C.): 67.6%
% Removed [6]: 51.9%
Percent Soil Removed [7]: 92.9%
Percent Soil Removed [8]: 89.2%
Percent Soil Removed [9]: 75.7%
Percent Soil Removed [10]: 88.5%
Percent Soil Removed [11]: 73.8%

Molecule: COC1(F)C(F)(F)C(F)(F)C(F)(F)C(F)(F)C1(F)F [c-C6F11OCH3]
HF Generation Rate [12]: 0.33 µg/g/h
Flash point [13]: no flash point
percent oil removal ([1]; 23 ° C.): 74.4%
percent oil removal ([1]; 50 ° C.): 96.5%
percent oil removal ([1]; 60 ° C.): 99.8%
% Removed [14]: 96.5%
% Removed [6]: 100.0%
Miscibility with solute [15, 21]: Miscible (greater than or equal to 50 percent by volume solubility at room temperature)
Miscibility with solute [15, 22]: Miscible (greater than or equal to 50 percent by volume solubility at room temperature)
Miscibility with solute [15, 23]: Miscible (greater than or equal to 50 percent by volume solubility at room temperature)

Molecule: FC(C(F)C(F)(F)C(F)(F)F)C(F)(F)F (centres unmarked) [reference compound]
HF Generation Rate [12]: 42.9 µg/g/h

Molecule: C4F9OC2H5 [Example C4F9OC2H5]
HF Generation Rate [12]: 0.22 µg/g/h
Flash point [13]: no flash point
percent oil removal ([1]; 23 ° C.): 56.0%
percent oil removal ([1]; 50 ° C.): 99.2%
percent oil removal ([1]; 60 ° C.): 100.0%
% Removed [14]: 99.3%
% Removed [6]: 100.0%
Percent Soil Removed [7]: 93.3%
Percent Soil Removed [8]: 100.0%
Percent Soil Removed [16]: 94.28%
Percent Soil Removed [9]: 99.4%
Percent Soil Removed [10]: 99.0%
Percent Soil Removed [11]: 97.1%
Miscibility with solute [15, 21]: Miscible (greater than or equal to 50 percent by volume solubility at room temperature)
Miscibility with solute [15, 22]: Miscible (greater than or equal to 50 percent by volume solubility at room temperature)
Miscibility with solute [15, 23]: Miscible (greater than or equal to 50 percent by volume solubility at room temperature)

Source: US20010044404A1, “Cleaning process and composition” (3M Innovative Properties Company, priority 1995, published 2001)
